Results on 5 molecules are retold here after article PMC6099886 (Proceedings of the National Academy of Sciences of the …, 2018).

One series concerns the target T1, DDR2-His (Homo sapiens, UniProt Q16832).
T1 sequence (Q16832 22-398): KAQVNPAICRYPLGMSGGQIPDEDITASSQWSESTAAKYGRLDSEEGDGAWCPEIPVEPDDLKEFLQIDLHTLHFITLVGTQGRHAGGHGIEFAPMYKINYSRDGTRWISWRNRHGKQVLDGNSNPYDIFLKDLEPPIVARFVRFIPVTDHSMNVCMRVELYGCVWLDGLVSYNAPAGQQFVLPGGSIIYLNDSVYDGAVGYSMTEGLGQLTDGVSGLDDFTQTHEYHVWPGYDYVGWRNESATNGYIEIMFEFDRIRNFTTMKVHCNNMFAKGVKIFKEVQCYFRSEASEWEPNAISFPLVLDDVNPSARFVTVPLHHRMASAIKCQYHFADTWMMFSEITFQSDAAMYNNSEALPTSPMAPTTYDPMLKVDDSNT
The series can be described thus: Solid-phase binding assay of DDR2-His. The note with it: 25 nM DDR2-His, collagen peptide.

A further series concerns 4T1 GFP/luc cells. The series can be described thus: Lung colonization after tail vein injection of 4T1 GFP/luc cells in BALB/cJ mice. Type of series: in vivo, mouse. The note with it: treated daily, 7 d.
For a further series, the system named is DDR2. The note with it: cited from earlier work.
The conditions of series [1]: cited from earlier work.
Series [2] deals with the molecule itself.
The series “cross-linking” deals with the molecule itself. As to the kind of experiment: cross-linking.
The series “SEC” concerns the molecule itself. The series can be described thus: SEC.

Changes are numbered by the printed parent chain. Names may count otherwise. Where two headings read alike, the source gives them in different places. *1 amine or outer side, *2 acyl side, *3 side chain or, on linkers, in order; H or OH if unused. Where a SMILES comes first, the peptide text is derived from it. Bridges are numbered along the chain shown (N, C = ends). Roman numbers before positions name the chains, in order. [ ]: non-standard residue; d: D form. Actinocin(9to1) = Cc1c2oc3c(C)ccc(C(=O)[*:1])c3nc-2c(C(=O)[*:2])c(N)c1=O; NMeV = CN[C@H](C(=O)O)C(C)C; Sar = CNCC(=O)O

Consider `Nc1c(C(=O)O)c2nc3c(C(=O)O)cccc3oc-2cc1=O` [cinnabarinic acid], for which, at DDR2-His, the “DDR2 inhibition in ECD solid-phase binding assay (in words)” value was “inactive”. Besides, the “lung colonization by 4T1 GFP/luc cells” value in the series on 4T1 GFP/luc cells was “no effect”.
With `Cc1c2oc3c(C)ccc(C(=O)N[C@@H]4C(=O)N[C@H](C(C)C)C(=O)N5CCC[C@H]5C(=O)N(C)CC(=O)N(C)[C@@H](C(C)C)C(=O)O[C@@H]4C)c3nc-2c(C(=O)N[C@@H]2C(=O)N[C@H](C(C)C)C(=O)N3CCC[C@H]3C(=O)N(C)CC(=O)N(C)[C@@H](C(C)C)C(=O)O[C@@H]2C)c(N)c1=O` [actinomycin D] (I: T[dV]P[Sar][NMeV] / II: T[dV]P[Sar][NMeV]; ester I:1-I:C, II:1-II:C; linker I:N-II:N via Actinocin(9to1)), the “DDR2 inhibition in ECD solid-phase binding assay (in words)” value on DDR2-His is recorded as “inhibits DDR2”. Also, the “DDR2 inhibition in previous in vitro screen” value in the series on DDR2 was “weak inhibitor”. Also, the toxicity profile result in series [1] is “high toxicity profile”.

B1: DDR2 F96A/T98A expressed as a full-length receptor in HEK293 cells (receptor, UniProt Q16832 22-855, looked up)
chain: KAQVNPAICRYPLGMSGGQIPDEDITASSQWSESTAAKYGRLDSEEGDGAWCPEIPVEPDDLKEFLQIDLHTLHAIALVGTQGRHAGGHGIEFAPMYKINYSRDGTRWISWRNRHGKQVLDGNSNPYDIFLKDLEPPIVARFVRFIPVTDHSMNVCMRVELYGCVWLDGLVSYNAPAGQQFVLPGGSIIYLNDSVYDGAVGYSMTEGLGQLTDGVSGLDDFTQTHEYHVWPGYDYVGWRNESATNGYIEIMFEFDRIRNFTTMKVHCNNMFAKGVKIFKEVQCYFRSEASEWEPNAISFPLVLDDVNPSARFVTVPLHHRMASAIKCQYHFADTWMMFSEITFQSDAAMYNNSEALPTSPMAPTTYDPMLKVDDSNTRILIGCLVAIIFILLAIIVIILWRQFWQKMLEKASRRMLDDEMTVSLSLPSDSSMFNNNRSSSPSEQGSNSTYDRIFPLRPDYQEPSRLIRKLPEFAPGEEESGCSGVVKPVQPSGPEGVPHYAEADIVNLQGVTGGNTYSVPAVTMDLLSGKDVAVEEFPRKLLTFKEKLGEGQFGEVHLCEVEGMEKFKDKDFALDVSANQPVLVAVKMLRADANKNARNDFLKEIKIMSRLKDPNIIHLLAVCITDDPLCMITEYMENGDLNQFLSRHEPPNSSSSDVRTVSYTNLKFMATQIASGMKYLSSLNFVHRDLATRNCLVGKNYTIKIADFGMSRNLYSGDYYRIQGRAVLPIRWMSWESILLGKFTTASDVWAFGVTLWETFTFCQEQPYSQLSDEQVIENTGEFFRDQGRQTYLPQPAICPDSVYKLMLSCWRRDTKNRPSFQEIHLLLLQQGDE
As usually defined, the stoichiometry N is the number of molecules, sites or subunits per partner or assembly. Consider B1, for which the “stoichiometry N” value in series [2] turned out to be 2.

B2: full-length DDR2 expressed in HEK293 cells (receptor, UniProt Q16832 22-855, looked up)
chain: B1 chain with A75F, A77T
As to B2, the “stoichiometry N” value in the series “cross-linking” was 2.

B3: DDR2 F96A/T98A double mutant ECD, His-tagged (domain or fragment, UniProt Q16832 22-399, looked up)
chain: KAQVNPAICRYPLGMSGGQIPDEDITASSQWSESTAAKYGRLDSEEGDGAWCPEIPVEPDDLKEFLQIDLHTLHAIALVGTQGRHAGGHGIEFAPMYKINYSRDGTRWISWRNRHGKQVLDGNSNPYDIFLKDLEPPIVARFVRFIPVTDHSMNVCMRVELYGCVWLDGLVSYNAPAGQQFVLPGGSIIYLNDSVYDGAVGYSMTEGLGQLTDGVSGLDDFTQTHEYHVWPGYDYVGWRNESATNGYIEIMFEFDRIRNFTTMKVHCNNMFAKGVKIFKEVQCYFRSEASEWEPNAISFPLVLDDVNPSARFVTVPLHHRMASAIKCQYHFADTWMMFSEITFQSDAAMYNNSEALPTSPMAPTTYDPMLKVDDSNTR
Consider B3, for which, in “SEC”, the “stoichiometry N” value worked out at 2.
